Data as given in patent publication US20260306633A1, “A COMBINATION THERAPY FOR CANCER TREATMENT” (Purdue Research Foundation, priority 2023, published 2026).
“And” between values parts separate entries of the source, which are not always exact repeats. Equal values may be shown once. “Also recorded” adds a separate entry of the source.

Key:
[1] = tested on: TNBC BT-549 cells; experiment: Cell survival / cell inhibition (MTT cell cytotoxicity assay) after 24 h treatment with photosensitizer and/or chemotherapeutic agent, dark or light-irradiated; type: cell-based, human
Experimental: Human mammary epithelial carcinoma cell lines purchased from the American Type Culture Collection BT-549 (ATCC HTB-122) were cultured according to ATCC protocol. BT-549 cells were grown in RPMI 1640 containing 0.023 IU/mL insulin and supplemented with 10% fetal bovine serum (FBS). Cells were grown to 80-90% confluence in 75-cm^2 culture flasks (Corning) for 4-5 days in a humidified incubator (Fisher Scientific Isotemp) with 5% CO2 at 37° C. During the incubation period, growth media was changed once with fresh pre-warmed media (pH 7.2). To harvest the cells, old growth media was aspirated out, and 3 mL 0.25% trypsin solution (Thermo Sci Hyclone) were added. The cells were incubated for 5 minutes, and the cell pellet after centrifugation was resuspended in 3 mL media, broken up gently, then 1 mL of suspended cells was transferred into a new T75 cell culture flask containing pre-warmed media (20 mL) for further culturing.
(§1) Cells were grown to confluence in a 96-well plate (9×10^3 cells/well) and co-treated for 24 hours with synthesized photosensitizers (PSs) and chemotherapeutic agents of varying concentrations ranging from 5 nM to 50 μM) in growth media from a stock solution of 10 mM in DMSO (dimethyl sulfoxide, Fisher). After 24-hour treatment, old growth media containing the PSs or compounds were aspirated out and replaced with fresh media. Plates were then positioned below a non-coherent LumaCare LC-122 650 nm light source for 1 minute at an energy fluence rate of 0.96 J/cm^2 and a power of 16 mW/cm^2 (measured using a Newport optical power meter Model 840). Unirradiated cells served as control samples. The following day, cells were washed with pre-warmed PBS, and 11MTT (3-[4,5-dimethyl-thiazol-2-yl]-2.5-diphenyltetrazolium bromide, Sigma, 0.3 mg/mL) in PBS was added to each well. Samples were allowed to incubate for additional 2 hours, after which dark blue crystals formed. DMSO was added to each well and plates were shaken at room temperature for 1 hour to dissolve the purplish-blue formazan crystals. Absorbance values at 570 nm were measured on a microplate reader (BioRad 550). Cell survival was calculated based on the absorbance of the untreated cells alone (as control) and were directly proportional to the number of viable cells in culture. Results were reported as the mean±SD of triplicate measurements.
The unmetallated PS and the indium complexes were used.
Light dose corresponds to an energy fluence rate of 0.96 J/cm^2 used.
Power of 16 mW/cm^2 used.
Cell inhibition in TNBC cells is based on the cell survival (MTT) assay of the binary therapy, blending the effect of PDT and chemotherapeutic agents. […] MePheo serves as a control compound. TNBC cells were then exposed to light after binary treatment for 24 hours.

[2] = tested on: human TNBC BT-549 cells; experiment: Fluorescence microscopy (Hoechst 33258) of cell morphology / cell death pathway; type: cell-based
Experimental: Grayscale images of cells stained with Hoechst 33258. Morphology of (A) untreated unirradiated cells, sham control; (B) illuminated cells; (C-E) cells treated with: PSs (InCLA, CBTN, and CPA) and paclitaxel in the dark; (F-H) PSs, followed by 1 minute light exposure; (I) paclitaxel unirradiated; (J-L) PSs and paclitaxel in the dark; (M-O) PSs co-treated with paclitaxel, then light-exposed; (P-Q) PSs co-treated with doxorubicin, then irradiated; (R) PSs and cisplatin, dark; (S-T) PSs and cisplatin, irradiated; (U) fluorouracil, dark; (V) InCLA with fluorouracil in the dark; (W) light-exposed and, (X-Y) PSs with methotrexate with light. Inserts indicate enlarged view. […] Light dose in 1 minute=0.96 J cm^−2; in 30 seconds=0.48 J cm^−2. Concentrations: PSs=50 nM; paclitaxel=50 nM; doxorubicin=500 nM; cisplatin=25 μM; fluororuracil=25 μM; and, methotrexate=500 nM.
Cells (1 mL aliquots) obtained from a diluted cell suspension were seeded into each well (1.7 cm^2, 8×10^3 cells/well) of a 4-well culture slide (BD Biosciences) and grown to confluence in 5% CO2 at 37° C. for 3-4 days for attachment to the substratum. After aspirating the old growth media, 1 mL of the photosensitizer and chemotherapeutic agents (with appropriate concentrations) in fresh pre-warmed media at 37° C. was added to each well. After compound treatment for 24 hours, cells were washed twice with 1 mL fresh growth media, and then irradiated with light using LumaCare LC-122 as described above. Cells were stained in the dark with Hoechst 33258 (Molecular Probes) in pre-warmed media for 10 minutes at 37° C., washed twice with filtered PBS, then fixed with filtered paraformaldehyde for 15 minutes in the incubator. After thorough liquid aspiration, the wells were removed and allowed to air dry in the dark for 1 hour. Slides were protected with coverslips, whose edges were sealed using clear fast-drying nail polish and allowed to dry at room temperature in the dark for 30 minutes. Images were recorded using fluorescence microscopy (DAPI for Hoechst 350-390 nm excitation and 460-490 nm emission filters) using an upright fluorescence microscope with Retiga imaging 2000R (Nikon Optiphot-2, 20× and 40×) and an image processing Nikon NIS-Elements V4.0 Qimaging software.
To determine the preferred cell death pathway for the binary chemophotodynamic therapy, tracking the hallmarks of apoptosis or necrosis was accomplished using a nuclear stain to monitor chromatin condensation and cellular contraction. TNBC cells are spindle-shaped and nearly round with intact cytoplasm, diffused chromatin, distinct cellular membrane, and large oval nuclei staining dark blue with the nuclear stain (FIG. 18A-B).

[3] = tested on: TNBC cells; experiment: Combination index (CI) of binary therapy, Chou-Talalay method, CompuSyn software; type: cell-based, human; conditions: PS 50 nM + methotrexate 500 μM (footnote 500 nM)
[4] = tested on: TNBC cells; experiment: as above; type: cell-based, human
Experimental: (§2) The calculated CI values are based on 50 nM concentration for the PSs, 50 nM paclitaxel, 500 nM doxorubicin, 25 μM cisplatin, 25 μM fluorouracil, and 500 nM methotrexate.
as §1
The combination index (CI) for the binary treatment of TNBC cells with a PS and a chemotherapeutic drug was calculated based on the Chou-Talalay method using CompuSyn software. […] The unified dynamics algorithm uses a minimum of dose-data points to fit the general MAL theory.
as §2

[5] = PS 100 nM + fluorouracil 25 μM, light

In the case of `C=Cc1c(C)c2cc3nc(c(CC(=O)OC)c4[nH]c(cc5nc(cc1[nH]2)C(C)=C5CC)c(C)c4C(=O)NCCCCCCNC(=O)CCCCC1SCC2NC(=O)NC21)C(CCC(=O)OC)C3C` (stereo not shown) [CBTN, chlorin biotin conjugate], the “cell inhibition (%), combination with cisplatin” value ([1]; PS 100 nM + cisplatin 25 μM, 24 h, light 0.96 J cm−2) is reported as 53%, the “effect of added cisplatin compared to cisplatin-treated cell viability” value ([1]; PS 100 nM + cisplatin 25 μM, light) is reported as “reduced cell survival” and the “cell survival, co-treatment with doxorubicin in the dark” value ([1]; PS 100 nM + doxorubicin 500 nM, 24 h, dark) is reported as 51%. For the same compound, the “cell inhibition (%), combination with doxorubicin” value ([1]; PS 100 nM + doxorubicin 500 nM, 24 h, light 0.96 J cm−2) was 64%, the “cell survival, co-treatment with doxorubicin upon light” value ([1]; PS 100 nM + doxorubicin 500 nM, light, 1440 min, 0.1 µM) was 35% and 36% and the best combination partner ([1]; PS 100 nM + drug, light) was “with paclitaxel followed by doxorubicin or fluorouracil; also recorded: with paclitaxel, followed by doxorubicin or fluorouracil”. For the same compound, the “cell inhibition (%), combination with fluorouracil” value ([1]; PS 100 nM + fluorouracil 25 μM, 24 h, light 0.96 J cm−2) was 64%, the “cell viability reduction (difference) vs PS alone” value [1, 5] was 46% and the “effect of added fluorouracil compared to fluorouracil-treated cell viability” value [1, 5] was “reduced cell survival”. The “cell survival, co-treatment with fluorouracil upon light” value ([1]; PS 100 nM + fluorouracil 25 μM, light, 1440 min) was 36%, the “cell survival, co-treatment with methotrexate in the dark” value ([1]; PS 100 nM + methotrexate 500 nM, 24 h, dark) was 85% and the “cell inhibition (%), combination with methotrexate” value ([1]; PS 100 nM + methotrexate 500 nM, 24 h, light 0.96 J cm−2) was 42%. The “cell inhibition (%), combination with paclitaxel” value ([1]; PS 100 nM + paclitaxel 50 nM, 24 h, light 0.96 J cm−2) was 65%, the “cell survival, co-treatment with paclitaxel upon light” value ([1]; PS 100 nM + paclitaxel 50 nM, light, 1440 min) was 35% and the “chemophotodynamic potency against TNBC cells, summary” value ([1]; PS 100 nM alone or in combination, light) was “better activity against TNBC cells than the starting compound MePheo”. For the same compound, the “cell survival, PS alone” value ([1]; PS 100 nM, light 0.96 J/cm^2, 1440 min, 0.1 µM) was 82% and 81%, the “cytotoxicity in the absence of light, PS alone” value ([1]; PS 500 nM, dark) was “No cytotoxicity” and the “combination therapy vs monotherapy (doxorubicin)” value ([1]; PS + doxorubicin, light) was “better photodynamic effect when co-treated with doxorubicin than PS-treatment alone”. The “combination therapy vs monotherapy (fluorouracil)” value ([1]; PS + fluorouracil, light) was “best compared to monotherapy alone and with the other PSs used”, the “cell viability reduction (difference) vs PS alone” value ([1]; PS at lower concentration (CPA: 50 nM) + methotrexate 500 nM, light) was 10% and the “cell morphology, PS co-treated with cisplatin, light” value ([2]; PS 50 nM + cisplatin 25 μM, light 0.48 J/cm^2 (FIG. 18S-T)) was “a significant number of shrunk cells and chromatin condensation can be seen”. The “cell morphology, PS co-treated with doxorubicin” value ([2]; PS 50 nM + doxorubicin 500 nM, irradiated) was “No significant difference”, the “cell morphology, PS co-treated with methotrexate, light” value ([2]; PS 50 nM + methotrexate 500 nM, light (FIG. 18X-Y)) was “Very few cells exhibit chromatin condensation” and the “cell morphology, PS co-treated with paclitaxel” value ([2]; PS 50 nM + paclitaxel 50 nM, light (FIG. 18M-O)) was “shrunk cells and chromatin fragmentation are evident”. For the same compound, the “cell morphology, PS-treated then light” value ([2]; PS 50 nM, 24 h, light (FIG. 18F-H)) was “not as obvious”, the “preferred mode of cell death” value ([2]; PS co-treated with paclitaxel or cisplatin) was “apoptosis” and the “combination index (CI) with methotrexate” value [3] was 1.57. The “synergism vs additive vs antagonism effect with methotrexate” value [3] was “(A) (A (1.45-3.3), antagonism)”, the “combination index (CI) with cisplatin” value ([4]; PS 50 nM + cisplatin 25 μM) was 0.99 and the “synergism vs additive vs antagonism effect with cisplatin” value ([4]; PS 50 nM + cisplatin 25 μM) was “(NA) (NA (0.9-1.10), nearly additive)”. The “combination index (CI) with doxorubicin” value ([4]; PS 50 nM + doxorubicin 500 nM) was 2.44, the “synergism vs additive vs antagonism effect with doxorubicin” value ([4]; PS 50 nM + doxorubicin 500 nM) was “(A) (A (1.45-3.3), antagonism)” and the “ranking of combination partners based on CI, decreasing order” value ([4]; PS 50 nM + drug) was “fluorouracil>paclitaxel>cisplatin”. The “combination index (CI) with fluorouracil” value ([4]; PS 50 nM + fluorouracil 25 μM) was 0.48, the “synergism vs additive vs antagonism effect with fluorouracil” value ([4]; PS 50 nM + fluorouracil 25 μM) was “(S) (S (0.3-0.7), synergism)” and the “combination index (CI) with paclitaxel” value ([4]; PS 50 nM + paclitaxel 50 nM) was 0.74. The “synergism vs additive vs antagonism effect with paclitaxel” value ([4]; PS 50 nM + paclitaxel 50 nM) was “(MS) (MS (0.7-0.85), moderate synergism)”.
